Results reported in US6271247A, “Hydrazide compounds” (Adir et Compagnie, priority 1998, dated 2001).

Assays:
Y5 receptor = target: T1, Y5 receptor (Homo sapiens, UniProt Q15761); experiment: In vitro affinity for NPY receptors, competition binding with [125I]-PYY on cell line expressing the Y5 sub-type; conditions: radioligand [125I]-PYY 15 to 65 pM
T1 construct: host or cells: unnamed cell line expressing the Y5 sub-type
T1 sequence (Q15761 1-445): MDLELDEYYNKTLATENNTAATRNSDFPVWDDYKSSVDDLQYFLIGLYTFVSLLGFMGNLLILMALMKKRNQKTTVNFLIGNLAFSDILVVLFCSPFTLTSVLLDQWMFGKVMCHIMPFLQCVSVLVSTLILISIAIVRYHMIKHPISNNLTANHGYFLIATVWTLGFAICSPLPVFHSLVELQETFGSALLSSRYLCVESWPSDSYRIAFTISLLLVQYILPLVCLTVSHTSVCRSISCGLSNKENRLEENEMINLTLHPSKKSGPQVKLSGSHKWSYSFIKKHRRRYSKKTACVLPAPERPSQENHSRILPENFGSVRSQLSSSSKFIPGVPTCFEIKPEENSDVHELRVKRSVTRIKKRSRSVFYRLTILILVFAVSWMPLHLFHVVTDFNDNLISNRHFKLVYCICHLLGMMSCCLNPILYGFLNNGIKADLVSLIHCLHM
Method: The capacity of the compounds of the invention to bind to NPY receptors was measured on various cell lines, each expressing one of the receptor sub-types studied. Competition binding experiments were carried out using the peptide [^125 I]-PYY as radioligand at concentrations ranging from 15 to 65 pM. The non-specific fraction is measured in the presence of a concentration of 1 μM NPY. The cells are incubated for a period ranging from 1 to 2 hours depending upon the lines, and the radioactivity is collected after filtration over a GF/C filter treated with 0.1% PEI, before being measured.
The results are expressed as IC50.

obese ob/ob mouse = experiment: Effect on food intake and weight development in the obese ob/ob mouse; format: in vivo, mouse (female ob/ob C57B1/6J); conditions: 5 mg/kg IP, twice daily
Method: The compounds of the invention were administered in vivo to the obese ob/ob mouse in order to evaluate their influence on food intake and weight development. The animals used are 13- to 18-week-old female ob/ob C57B1/6J mice. They are divided into groups each comprising 4 animals per cage, the cages being fitted with a grating floor, and the mice having free access to food.
Before the experiments, the animals are conditioned for a period ranging from 2 to 3 weeks until their food consumption has stabilised. The experiments may be summarised as follows:
D -14 to D -7: conditioning
D -7 to D -3: measurement of the basal food intake
D0 to D +3: animals treated twice daily, the control groups being given the carrier D0 to D +4: daily measurement of food intake and body weight
The test products are dissolved, immediately before use, in water, 0.9% sodium chloride, propylene glycol or dimethyl sulphoxide, depending upon their solubility, and are administered intraperitoneally (IP), in a volume of 2.5 ml/kg.
The parameters measured are the weight of the feed troughs containing the food and the body weight.
The results are expressed as: percentage variation in food intake under treatment compared with the basal food intake; percentage variation in body weight between the first and last day of treatment.

Compound: O=C(NNC(=O)C1CCC(CNS(=O)(=O)c2ccc3ccccc3c2)CC1)c1ccccc1 (stereo not drawn) [Example 44, N2-({4-[(2-Benzoylhydrazino)carbonyl]cyclohexyl}methyl)-2-naphthalenesulphonamide]
- IC50 (Y5 receptor): 14.5 nM
- Food intake % variation (D1), Treated (compared with the basal food intake) (obese ob/ob mouse; D1, control -25.3): -75.2%
- Body weight % variation (D4/D0) (obese ob/ob mouse; D4/D0): -6.0%
